Results as given in patent publication US12129235B2, “TSPO binders” (The University Court of the University of Glasgow, priority 2018, dated 2024).

Legend:
[1] = biological target: T1, TSPO (Rattus norvegicus, UniProt P16257); assay: ^18F-LW223 PET/CT in rat model of myocardial infarction; assay type: in vivo, rats; design: from tissue; host or cells: living Sprague-Dawley rats (brain, heart, lungs and other organs); conditions: heart, brain and lungs; 7 days after myocardial infarction
Text: Rats underwent permanent of ligation of the left anterior descending coronary artery to induce myocardial infarction and after 7 days were imaged using ^18F-LW223 PET/CT (see FIG. 11). Naive rats were used as a healthy control for comparison. […] This indicates a myocardial infarction mediated increase in expression of TSPO within these organs which may also be interpreted as increased systemic inflammation.

[2] = biological target: T1, TSPO; assay: ^18F-LW223 PET blocking and displacement with PK11195 (1 mg/kg) in rats; assay type: in vivo; design: from tissue; host or cells: living Sprague-Dawley rats (brain, heart, lungs and other organs); conditions: for reduction of radiotracer binding post-blocking / VT post-blocking: PK11195 1 mg/kg; for displacement from target sites at equilibrium time point: PK11195 1 mg/kg after 60 min; for VT post-blocking: mean±SEM, n=3
Description: 13 PET scans were performed with ^18F-LW223 (mean injected radioactivity of 19.55±2.1 MBq). Scans were acquired following i.v. bolus injection of ^18F-LW223 via tail vein or femoral vein shunt (invasive kinetic modelling experiments with β-probe automatic blood sampler) in rats. Test-retest scans were obtained in three rats following i.v. bolus of the radiotracer, with two weeks interval between test and retest imaging sessions. […] These scans were compared to baseline scans where no PK11195 was used. For displacement studies, rats received i.v. administration of ^18F-LW223 and scanned continuously for 120 min. […] A male and female mouse were initially used to derive the dosimetry estimates for ^18F-LW223 over a 4 h dynamic scan, followed by additional mice in a further study (in a study with a mean injected radioactivity of 10.83±5.6 MBq).
All PET data were acquired using a preclinical PET/CT small animal scanner (nanoPET/CT, Mediso, Hungary). A CT scan (semi-circular full trajectory, maximum field of view, 480 projections, 50 kVp, 300 ms and 1:4 binning) was acquired for attenuation correction. Immediately following radiotracer administration, a 120 minutes emission scan was obtained using 3-dimentional 1:5 mode and re-binned as follows: 18×10 s; 2×30 s; 1×60 s; 2×2 min; 10×5 min; 6×10 min. PET images were reconstructed using Mediso's iterative Tera-Tomo 3D reconstruction algorithm and the following settings: 4 iterations, 6 subsets, full detector model, low regularization, spike filter on, voxel size 0.4 mm and 400-600 keV energy window. PET data were corrected for randoms, scatter and attenuation.
Image Processing and Data Analysis Reconstructed scans were imported into PMOD 3.8 software (PMOD Technologies, Switzerland). Volumes of interest (VOIs) were manually drawn around organs of interest. Time-activity curves (TACs) were generated and standardized uptake values (SUVs) calculated as concentration in the VOI divided by injected dose divided by animal weight. Kinetic modelling was performed using compartmental analysis (1-Tissue (1T) and 2-Tissue (2T) models) and graphical analysis (Logan plot and Ichise multivariate analysis) to estimate the volume of distribution (VT) in different tissues (Innis et al.; Logan; and Ichise et al.). Model fitting performance was evaluated using the Akaike information criterion (AIC) and the model selection criterion (MSC), where the preferred model had the lowest AIC and highest MSC. The selected identifiability criterion was the percentage standard error (% SE) of VT estimates. Kinetic modeling was also performed using graphical analysis to estimate the distribution volume ratio (DVR) in tissue regions and organs where the reference region VOI was the blood pool VOI in the left ventricle (Logan et al.).

[3] = Observation after in vivo administration of ^18F-LW223

## CC[C@@H](C)N(C)C(=O)c1nc2ccccc2c(-c2ccccc2)c1C[18F] [^18F-LW223, (R)-(N-sec-Butyl)-3-[19-fluoro]-methyl-N-methyl-4-phenylquinoline-2-carboxamide]
[1]
  SUV relative to the blood pool versus naive rats: increase
[2]; PK11195 1 mg/kg prior to tracer
  reduction on the SUV values post-blocking compared with baseline: 64-81%
[2]; brain
  reduction of radiotracer binding post-blocking: 12%
  displacement from target sites at equilibrium time point: 29%
[2]; heart
  reduction of radiotracer binding post-blocking: 35%
  displacement from target sites at equilibrium time point: 52%
  VT post-blocking: 6.19±0.38
[2]; lungs
  reduction of radiotracer binding post-blocking: 56%
  displacement from target sites at equilibrium time point: 40%
  VT post-blocking: 2.27±0.07
[3]
  negative effects following administration in vivo: no negative effects were apparent
